From article PMC10746753 (Pharmaceutical Research, 2023)

System: Caki-1 xenografts
Assay: Anti-tumor efficacy study EFF-02
Type: in vivo, CD1 nu/nu mice
Conditions: p.o., 6–7 weeks
Experimental: For all in vivo studies, human Caki-1 renal tumor cells (ATCC: HTB-46, RRID: CVCL_0234; 5 million in 100 µL PBS w/o Ca/Mg, Matrigel [1:1]) were subcutaneously inoculated into the right flank of female 5–6-week-old CD-1 nude mice provided by Charles River Laboratories (CRL), Sulzfeld, Germany. Tumor growth was observed over time by measuring tumor length (L) and width (W) twice weekly using calipers. Tumor volume was calculated using the formula LxW^2/2. Data were collected in Study Advantage™ (data collection system).
Anti-tumor efficacy study. […] PD analysis was not performed in this study.

`O=C(NCc1cc(F)cc(F)c1)[C@@]1(O)CCN(c2ccc3[nH]ccc3c2)C1=O` [M8891] gave a minimal efficacious dose of 25 mg/kg BID.
